Assay results taken from EP4741374A1, “TREPROSTINIL DERIVATIVE, AND PREPARATION METHOD THEREFOR AND USE THEREOF” (CF PharmTech HongKong Limited, priority 2023, dated 2025).

Experiments:
IP receptor = biological target: T1, IP receptor (Homo sapiens, UniProt P43119); assay: In-vitro agonist activity on IP receptor, FLIPR calcium test in IP/HEK293 cells; format: cell-based; details: 10 concentrations, 10-fold dilutions
T1 construct: host or cells: HEK293 (IP/HEK293 cell line)
Protocol: The specific method is as follows: The IP/HEK293 cell line was provided by WuXi AppTec (Shanghai) Co., Ltd. Well-grown IP/HEK293 cells were taken out from the incubator, the culture solution was aspirated, the cells were washed with D-PBS and digested with trypsin EDTA, and then added with a cell culture solution, and the cells were fully suspended by repeated pipetting. The cells were centrifuged at room temperature, the supernatant was aspirated, a culture medium was added, and the cells were resuspended by repeated pipetting with a sterile pipette. After counting living cells with Vi-CELL™, 20 µL (20,000 cells/well) of cell suspension was added to a 384-well cell culture plate and incubated in a 5% CO2 incubator at 37°C overnight. 1 mL of FLIPR test buffer was added with 77 mg of probenecid to prepare 250 mM probenecid solution. After thawing a bottle of 2XFluo-4 DirectTM (F10471), the bottle was added with 10 mL of FLIPR test buffer containing 500 uM AEBSF, and each 10 mL of Fluo-Direct was added with 0.2 mL of probenecid, with a final concentration of 2.5 mM. The mixture was vortexed and then allowed to stand in the dark for more than 5 minutes. Each compound was placed in a water bath at 25°C for 30 minutes. Then, these compounds were sequentially diluted 10-fold with Bravo, with a total of 10 concentrations, for testing. 750 nL of each compound was transferred to a 384-well compound plate with ECHO. Then, the compound plate was added with 30 µL of detection buffer. The 384-well cell culture plate was taken out from the incubator, the culture medium was discarded, and 20 µL of test buffer and 20 µL of 2X Fluo-4 DirectTM No-Wash loading buffer were added with a pipette. The cell culture plate was incubated in a 5% CO2 incubator at 37°C for 50 minutes and incubated at room temperature for 10 minutes. The cell culture plate, the compound plate and a tip box were placed into FLIPR, FLIPRTETRA test program was operated, 10 µL of reference compound and 10 µL of test compound were aspirated from the compound plate to the cell culture plate, fluorescence signals were read, and then data were processed. The data were analyzed by using Prism.

[1] = Stability of treprostinil derivative in ethanol/water solutions of different pH (light irradiation, 40°C, 60°C); format: physicochemical
Protocol: 1 mol/L hydrochloric acid and/or sodium hydroxide aqueous solution and distilled water were used to prepare 100 mL solutions with different pH values (3.0, 4.0, 5.0, 6.0, 7.0, 8.0, 9.0 and 10.0) for later use. 640 mg of compound Ia-2 was taken and added with 640 mL of 90% ethanol as a diluent to completely dissolve the compound, and then prepared into 1 mg/mL sample solution 1 for later use. • (1) […] of 90% ethanol, the sample solution 1 and 80 mL of each aqueous solution with different pH value (3.0, 5.0, 7.0 or 9.0) were taken and mixed evenly (ethanol: water =1.5: 1), and filled 2 mL per vial to obtain total 90 vials of samples, and the samples were divided into three groups equally for stability examination under the condition of light-irradiation, high-temperature of 40°C or high-temperature of 60°C. The samples of the two high-temperature stability examination groups were packaged in aluminum foil bags, 10 vials per bag; and the samples of the light-irradiation stability examination group were packaged in transparent bags, 10 vials per bag. • (2) 80 mL of 90% ethanol, the sample solution 1 and 80 mL of each aqueous solution with different pH value (4.0, 6.0, 8.0 or 10.0) were taken and mixed evenly (ethanol: water =2: 1), and then filled, grouped and packaged as above.
After the above samples were placed under conditions as described in Table-1, 15 vials of samples were taken from each group at each detection time point for detection for each pH value solution, comprising: the content of compound, the content of related substances (impurities) and liquid properties (whether there was turbidity, stratification or color change). The content of compound and the content of related substances were calculated by calculating the percentage of area occupied by the main ingredient through an area normalization method. Table-1 Placement conditions for stability examination of compound Ia-2

SD rats = assay: U46619-induced rat acute pulmonary arterial pressure rise model, low-dose airway nebulized administration (RVSP); format: in vivo; details: 1 hour after low-dose airway nebulized administration (about 3 µg/kg, equimolar)
Text: In this experiment, airway nebulized administration dosages of the compounds were about 1/7 of airway nebulized administration dosages in Experimental Example 5. By using a U46619-induced rat acute pulmonary arterial pressure rise model, antihypertensive effects of the compounds of the present invention after airway nebulized administration were further verified by reducing the administration dosages.
A model construction method was the same as that described in Experimental Example 5. In this experiment, dosages of groups were as follows: the dosage of compound C16-TR group was 3 µg/kg, and the dosages of equimolar compounds Ia-1, Ia-2 and Ia-3 were 3.0 µg/kg, 3.2 µg/kg and 3.3 µg/kg respectively.
The SD rats were anesthetized and then administered by airway nebulization, and then the basic right ventricular systolic pressure (RVSP) was measured by right cardiac catheterization. The SD rats were intravenously injected with U46619 (25 µg /kg) at 1 hour after airway nebulized administration of each compound, a peak value of RVSP rise after injection with U46619 was observed and recorded, and the inhibition percentage on the RVSP rise was calculated by comparing with the basic RVSP value. The number of experimental animals in each group was 1~2.

T1 sequence (P43119 whole entry): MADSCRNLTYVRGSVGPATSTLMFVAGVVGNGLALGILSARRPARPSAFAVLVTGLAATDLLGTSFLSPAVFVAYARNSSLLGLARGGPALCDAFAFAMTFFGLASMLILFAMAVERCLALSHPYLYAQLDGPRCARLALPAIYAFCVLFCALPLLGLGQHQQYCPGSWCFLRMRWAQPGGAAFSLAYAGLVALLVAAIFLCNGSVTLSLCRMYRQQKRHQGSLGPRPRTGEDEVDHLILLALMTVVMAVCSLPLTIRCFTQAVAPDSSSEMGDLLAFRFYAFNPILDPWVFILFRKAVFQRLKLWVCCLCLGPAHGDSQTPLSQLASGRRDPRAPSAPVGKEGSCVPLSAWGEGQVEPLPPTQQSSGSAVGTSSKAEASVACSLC

agonist activity on IP receptor (IP receptor): no agonist activity
content of compound ([1]; each group (pH 3-10), placement at 40°C for 30 days): higher than 80%
content of compound ([1]; ethanol: water 1.5:1 or 2.0:1, different pH values, after placement for 10 days): higher than 95%
ethyl ester impurities ([1]; extreme conditions: pH=3, 60°C for 30 days, pH=10, 40°C for 30 days or 60°C more than 10 days): 8.0~9.0%
ethyl ester impurities ([1]; high-temperature placement, other conditions): less than 4.0%
ethyl ester impurities ([1]; light irradiation, each group, after 10 days): less than 1.80%
content of compound ([1]; solution with pH=5.0~9.0, placement at 60°C for 30 days): higher than 90%
SMILES: CCCCC[C@H](O)CC[C@@H]1[C@H]2Cc3cccc(OCC(=O)OCCCCCCCCOCCCCc4ccccc4)c3C[C@H]2C[C@H]1O [Compound Ia-2]
Inhibition percentage on RVSP rise (%) (mean) (SD rats): 65.78%
